Measured values taken from patent US12227500B2, “Substituted pyrrolo[2,3-b]pyridines for suppressing toxic endoplasmic reticulum stress” (THE TRUSTEES OF COLUMBIA UNIVERSITY IN THE CITY OF NEW YORK, priority 2018, dated 2025).
pEC50, pIC50: −log10 of the molar value. Like-named read-outs stand apart in the source and are kept apart here.

What was measured:
hSOD1^G93A motor neurons = test: RT-PCR of stress-associated genes after CPA treatment; format: cell-based, mouse
Protocol: . We observed a rapid increase in the expression of Bip and the key downstream effector Chop (Ddit3). Bip was increased 2-fold after 1 hour of CPA exposure, and continued to increase to approximately 5-fold by 8 hours. […] Other genes with >2-fold induction included: p58/PK 255 (6.5 fold at 8 hours), an ER-stress-induced protein kinase; Growth arrest and DNA-damage inducible protein 45 alpha (Gadd45a; […]; Erdj4, a Bip cofactor with involvement in ER associated protein degradation (ERAD) (5-fold at 4-8 hours); Atf4, a downstream mediator of the PERK-axis of the UPR (3-fold at 8 hours); […]; and Nrf2, a PERK substrate (2 fold at 8 hours). Altogether, these expression changes pointed to strong activation of multiple axes of the unfolded protein response (UPR) in motor neurons exposed to CPA (FIG. 19F).
Samples were lysed in TRIzol and frozen at −80° C. until further processing. RNA was extracted using the Qiashredder and Qiagen RNeasy Mini kits (Qiagen) according to the manufacturer's protocol. 1-2 μg total RNA was used for each reverse transcription reaction, and reactions were performed using the TaqMan RT kit (Applied Biosystems, Grand Island, NY, USA). Primer pairs were designed for target transcripts using Primer Express 3.0 (Applied Biosystems). Quantitative PCR reactions were performed using the Power SYBR Green PCR Master Mix (Applied Biosystems). Reactions were run and analyzed on a ViiA 7 (Life Technologies) qPCR instrument using absolute quantification settings.

[1] = test system: HB9::GFP-SOD1^+/A4V human motor neurons; test: Rescue of CPA toxicity in human ESC-derived motor neurons, SOD1^+/A4V; format: cell-based
Excerpt: (§1) One advantage of the stem cell-derived motor neuron survival assay is that it can be easily extended to human motor neurons. To adapt the assay to human cells, we generated a new isogenic pair of ESC lines derived from a human ESC line expressing GFP under the control of the Hb9 motor neuron promoter (HUES3 HB9::GFP, (Di Giorgio et al. 2008)). […] . The pair of cell lines was differentiated into motor neurons in parallel using previously published protocols (Amoroso et al. 2013; […] .
(§2) Differentiation of human isogenic HUES3 ESC HB9::GFP reporter lines into motor neurons was performed as previously described (Maury et al. 2015). Cells were dissociated on day 16 of differentiation, FACS-sorted and plated on poly-ornithine- and laminin-coated surfaces as above. Serum-free human motor neuron plating media was supplemented with the antimitotic UFdU and the neurotrophic factors GDNF, BDNF, CNTF, and IGF1 (all at 10 ng/mL) as described (Johnson-Kerner et al. 2015).

[2] = test system: ESC-derived spinal motor neurons and interneurons; test: Toxicity of ER stressors in mouse ESC-derived spinal neuron cultures; format: cell-based
Excerpt: One of the selective stressors that we identified was cyclopiazonic acid (CPA), a mycotoxin that reversibly blocks the sarcoendoplasmic reticulum-associated calcium ATPse (SERCA). SERCA is responsible for sequestering calcium from the cytoplasm into the endoplasmic reticulum (ER) (Goeger et al. 1988). SERCA inhibition lowers calcium concentration in the ER, leading to dysfunction of protein folding, activation of the unfolded protein response, ER stress, and apoptosis (Doutheil et al. 1997). […]. For all subsequent experiments, unless stated otherwise, motor neurons were treated with 7.5 μM CPA.
[…]. […] […].
For this analysis, we generated a new ESC line that expresses tdTomato in dI4 and dIL dorsal spinal inhibitory interneurons derived from Ptf1α-expressing progenitors (Hoang et al. 2017, unpublished data). We differentiated this line under conditions that promote the specification of dorsal interneuron identity. FACS-purified tdTomato-expressing interneurons were co-cultured with FACS-purified GFP-expressing spinal motor neurons (FIG. 16E and FIG. 16G).
To strengthen the link between the activation of ER stress and motor neuron degeneration, we extended our study to include two additional compounds that activate ER stress: thapsigargin, a drug that acts similarly to CPA by inhibiting SERCA pumps, but is irreversible (Lytton et al. 1991), and tunicamycin, a drug that triggers ER stress in a calcium-independent manner by inhibiting protein N-glycosylation in the ER (Oslowski et al. 2011). […] Thus, the motor neuron-toxic effects of CPA are likely related to its activation of ER stress pathways and not to its effects on calcium levels or other off-target effects (FIG. 16G).

[3] = test system: human stem cell-derived motor neurons derived from a healthy patient; test: CPA survival assay, wild-type human stem cell-derived motor neurons
[4] = test system: HB9::GFP-SOD1^+/+ human motor neurons; test: Rescue of CPA toxicity in human ESC-derived motor neurons, SOD1^+/+; format: cell-based; settings: 33 μM CPA
Excerpt: as §1, §2

[5] = test system: human ES motor neurons carrying the ALS-causing SOD1^A4V mutation; test: cells; format: cell-based; settings: 72 h, 72 h; for pEC50 / viability at 1 µM / Emax: Homo sapiens, Neuron; for pEC50: read-out: EC50; for viability at 1 µM: CPA (33 μM) + compound (1 μM), read-out: Motor Neuron Survival, % untreated; for Emax: read-out: Emax (MN survival % untreated)
Protocol: Next, survival assays were performed with all the analogs at once to generate a low-variability dataset. All compounds were evaluated at concentrations ranging from 0.1-3.0 μM (five-point dilution) in three technical replicates and two biological replicates.

in vitro = settings: CD-1, mouse, liver microsomes, pH 7.4
Protocol: To test the metabolic stability of the analogs, an in vitro microsomal stability assay was carried out.
The microsomal stability assay was performed in 96-well format (Perkin-Elmer, StorPlate-96U, PP, 96 well, round bottom). […] A stock solution of the compound to be analyzed (0.8 μL. 5 mM) or ethoxycoumarin (positive control, 0.8 μL, 5 mM) was added and the mixture was warmed to 37° C. for 5 minutes. The mouse microsomes (CD-1, 5 μL, thawed in a 37° C. water bath before use, 20 mg/mL, Life Technologies) were added. At selected time points (0, 15, 30, 45, 60 and 120 minutes) aliquots (15 μL) were withdrawn from the plate and quenched upon addition to cold acetonitrile (60 μL), containing an internal standard (5 μM) in a 96-well plate. The samples were centrifuged at 13,000 rpm for 10 minutes at 4° C. The supernatant (40 μL) was withdrawn and transferred to a sample vial with insert. The samples were analyzed by LC-MS.
LC-MS analysis was performed on a platform comprising a Thermo Scientific Dionex Ultimate 3000 and a Bruker amaZon SL equipped with an electrospray ionization source controlled by Bruker Hystar 3.2. […] The flow rate was maintained at 400 μL/min. The initial flow conditions were 60% solvent A (water containing 0.1% acetic acid) and 40% solvent B (methanol containing 0.1% acetic acid).
Aliquots were taken over the course of two hours and analyzed by HPLG-MS using an internal standard to assess compound stability over time.

MLK3/MAP3K11 = target: T1, MLK3/MAP3K11 (Homo sapiens, UniProt Q16584); test: Radiolabeled ATP kinase assay (Reaction Biology Corp.), MLK3; format: biochemical; settings: for % Enzyme Activity Remaining (relative to DMSO controls), MLK3/MAP3K11, Data 1 / % Enzyme Activity Remaining (relative to DMSO controls), MLK3/MAP3K11, Data 2: [Cmpd] 0.1 μM, 10 μM ATP
T1 construct: purchased Reaction Biology Corp
Protocol: (§3) Meanwhile, the same analogs were analyzed in a radiolabeled ATP assay (10 μM ATP; Reaction Biology Corp.) to compare the extent to which they could inhibit the activity of HGK, MLK1, or MLK3 in a cell-free environment (Table S3 and S4).

HGK/MAP4K4 [6] = target: T2, HGK/MAP4K4 (Homo sapiens, UniProt O95819); test: Radiolabeled ATP kinase assay (Reaction Biology Corp.), HGK; format: biochemical; set-up: purchased Reaction Biology Corp; settings: 10 μM ATP, read-out: % Enzyme Activity (relative to DMSO controls), HGK/MAP4K4, Data 1; for remaining activity at 0.025 µM: [Cmpd] 0.025 μM; for remaining activity at 0.1 µM: [Cmpd] 0.1 μM
Protocol: as §3
Target sequence in this assay (O95819 whole entry): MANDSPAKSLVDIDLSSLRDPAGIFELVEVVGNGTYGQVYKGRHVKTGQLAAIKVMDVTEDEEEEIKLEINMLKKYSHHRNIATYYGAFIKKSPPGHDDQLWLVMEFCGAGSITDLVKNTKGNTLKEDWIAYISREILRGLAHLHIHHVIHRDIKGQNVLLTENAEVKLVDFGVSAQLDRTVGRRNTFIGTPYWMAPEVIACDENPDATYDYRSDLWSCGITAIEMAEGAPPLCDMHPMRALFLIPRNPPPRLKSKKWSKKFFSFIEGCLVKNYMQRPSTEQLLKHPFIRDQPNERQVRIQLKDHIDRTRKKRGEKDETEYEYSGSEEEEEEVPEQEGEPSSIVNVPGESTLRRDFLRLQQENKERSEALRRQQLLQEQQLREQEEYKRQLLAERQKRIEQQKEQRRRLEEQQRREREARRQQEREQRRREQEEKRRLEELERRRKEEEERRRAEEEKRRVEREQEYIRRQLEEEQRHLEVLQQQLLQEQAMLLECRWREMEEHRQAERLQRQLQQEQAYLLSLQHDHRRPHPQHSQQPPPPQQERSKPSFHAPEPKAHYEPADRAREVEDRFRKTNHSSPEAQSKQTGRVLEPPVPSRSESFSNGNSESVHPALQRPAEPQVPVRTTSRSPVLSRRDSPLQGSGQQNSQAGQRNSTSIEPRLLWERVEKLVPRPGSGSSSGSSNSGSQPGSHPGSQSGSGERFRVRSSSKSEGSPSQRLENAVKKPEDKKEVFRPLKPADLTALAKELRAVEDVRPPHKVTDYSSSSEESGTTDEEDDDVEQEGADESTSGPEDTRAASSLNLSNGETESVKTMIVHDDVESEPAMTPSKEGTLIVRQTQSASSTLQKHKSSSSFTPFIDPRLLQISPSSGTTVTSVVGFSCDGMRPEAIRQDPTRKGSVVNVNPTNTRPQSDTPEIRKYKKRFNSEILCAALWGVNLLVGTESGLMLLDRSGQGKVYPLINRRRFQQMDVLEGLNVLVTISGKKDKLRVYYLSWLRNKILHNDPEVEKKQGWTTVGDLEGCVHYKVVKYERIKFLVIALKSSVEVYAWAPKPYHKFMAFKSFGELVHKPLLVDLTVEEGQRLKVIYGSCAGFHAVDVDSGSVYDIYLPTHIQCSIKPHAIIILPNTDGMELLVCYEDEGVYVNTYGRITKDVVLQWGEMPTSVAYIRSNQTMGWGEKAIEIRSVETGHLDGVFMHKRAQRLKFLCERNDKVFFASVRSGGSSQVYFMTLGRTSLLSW

MLK1/MAP3K9 = target: T3, MLK1/MAP3K9 (Homo sapiens, UniProt P80192); test: Radiolabeled ATP kinase assay (Reaction Biology Corp.), MLK1; format: biochemical; settings: [Cmpd] 0.1 μM, 10 μM ATP
T3 construct: purchased Reaction Biology Corp
Protocol: as §3

N9 microglial cells = test: TNFα release by LPS-stimulated microglia (ELISA); format: cell-based, mouse; settings: LPS 0.1-5 μM; 24 h
Protocol: To model microglial activation in vitro, we stimulated mouse N9 microglial cells with increasing concentrations of E. coli-derived lipopolysaccharides (LPS) (0.1-5 μM) to measure release of the pro-inflammatory cytokine TNFα into cell culture media.
Cultures were maintained in DMEM containing FBS (10%, Life Technologies) and Glutamax (1%, Life Technologies). […] N9 cells remaining in the culture dishes were treated with AlamarBlue (Thermo Fisher) to assess viability. 5 μL AlamarBlue was added to each well (containing 50 μL culture media) and incubated for 4 h at 37°.

human ES motor neurons = test: Rescue of CPA toxicity by kinase inhibitors in dilution series (FIG. 3); settings: dilution series, FIG. 3
HGK/MAP4K4 [7] = target: T2, HGK/MAP4K4; settings: Ammirati et al. 2015; Ndubaku et al. 2015; cited from earlier work
Target sequence in this assay (O95819 whole entry, species assumed): as the sequence (O95819 whole entry) above

[8] = read-out: % Enzyme Activity Remaining (relative to DMSO controls), MLK1/MAP3K9, Data 1
[9] = read-out: % Enzyme Activity Remaining (relative to DMSO controls), MLK1/MAP3K9, Data 2

T1 sequence (Q16584 whole entry): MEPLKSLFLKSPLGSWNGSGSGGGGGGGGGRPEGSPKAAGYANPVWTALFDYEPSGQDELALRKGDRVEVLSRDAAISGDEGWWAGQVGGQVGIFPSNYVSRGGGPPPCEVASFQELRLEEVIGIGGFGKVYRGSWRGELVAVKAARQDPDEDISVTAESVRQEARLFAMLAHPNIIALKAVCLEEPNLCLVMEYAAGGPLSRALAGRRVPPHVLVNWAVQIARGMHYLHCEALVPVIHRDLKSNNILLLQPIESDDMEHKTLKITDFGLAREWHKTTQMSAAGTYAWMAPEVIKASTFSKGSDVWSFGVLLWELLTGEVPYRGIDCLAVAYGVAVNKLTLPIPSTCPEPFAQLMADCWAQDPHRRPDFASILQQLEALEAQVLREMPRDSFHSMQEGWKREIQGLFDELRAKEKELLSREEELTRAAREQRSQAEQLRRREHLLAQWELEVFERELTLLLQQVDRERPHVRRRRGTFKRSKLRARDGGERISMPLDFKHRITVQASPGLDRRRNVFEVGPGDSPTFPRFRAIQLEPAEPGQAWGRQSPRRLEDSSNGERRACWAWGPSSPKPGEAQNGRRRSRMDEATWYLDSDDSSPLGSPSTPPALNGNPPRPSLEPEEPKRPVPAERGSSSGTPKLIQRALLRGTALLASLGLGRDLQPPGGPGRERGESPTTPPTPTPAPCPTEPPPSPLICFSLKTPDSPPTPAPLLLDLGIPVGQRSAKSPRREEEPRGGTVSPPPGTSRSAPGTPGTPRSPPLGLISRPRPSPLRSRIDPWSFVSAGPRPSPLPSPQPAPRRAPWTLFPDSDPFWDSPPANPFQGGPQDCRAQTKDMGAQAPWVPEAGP
T3 sequence (P80192 whole entry): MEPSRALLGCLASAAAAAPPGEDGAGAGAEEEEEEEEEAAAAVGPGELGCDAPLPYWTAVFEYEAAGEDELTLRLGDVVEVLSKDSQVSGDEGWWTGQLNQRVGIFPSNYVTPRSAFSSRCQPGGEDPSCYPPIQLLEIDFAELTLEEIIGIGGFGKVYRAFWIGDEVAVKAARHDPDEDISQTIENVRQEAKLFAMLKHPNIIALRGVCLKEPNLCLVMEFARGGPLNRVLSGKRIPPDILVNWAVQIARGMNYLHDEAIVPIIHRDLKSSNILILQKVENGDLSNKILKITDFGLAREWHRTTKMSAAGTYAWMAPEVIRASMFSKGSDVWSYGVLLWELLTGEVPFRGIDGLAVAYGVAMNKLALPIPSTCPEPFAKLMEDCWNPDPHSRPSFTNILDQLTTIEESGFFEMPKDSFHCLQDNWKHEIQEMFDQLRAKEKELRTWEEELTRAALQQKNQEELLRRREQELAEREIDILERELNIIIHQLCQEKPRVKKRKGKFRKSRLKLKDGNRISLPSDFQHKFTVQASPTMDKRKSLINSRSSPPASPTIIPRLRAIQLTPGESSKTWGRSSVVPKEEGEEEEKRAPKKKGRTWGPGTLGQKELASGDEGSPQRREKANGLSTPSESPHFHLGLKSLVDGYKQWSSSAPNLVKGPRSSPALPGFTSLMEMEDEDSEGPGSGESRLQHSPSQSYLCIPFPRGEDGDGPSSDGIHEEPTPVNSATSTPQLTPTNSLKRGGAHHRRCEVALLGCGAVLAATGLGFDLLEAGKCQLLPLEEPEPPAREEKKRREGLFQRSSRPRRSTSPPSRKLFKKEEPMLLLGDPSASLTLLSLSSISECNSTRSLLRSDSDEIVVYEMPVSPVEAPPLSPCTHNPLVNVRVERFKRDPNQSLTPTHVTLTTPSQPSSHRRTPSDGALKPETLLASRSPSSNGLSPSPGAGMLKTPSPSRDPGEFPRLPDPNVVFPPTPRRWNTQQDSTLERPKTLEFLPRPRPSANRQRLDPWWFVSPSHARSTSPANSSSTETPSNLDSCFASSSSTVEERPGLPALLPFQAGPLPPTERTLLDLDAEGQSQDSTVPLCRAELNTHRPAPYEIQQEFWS

SMILES: CC(=O)C1=C(O)[C@@H]2[C@H]3c4c[nH]c5cccc(c45)C[C@H]3C(C)(C)N2C1=O [CPA, cyclopiazonic acid]
- Erdj4 induction (hSOD1^G93A motor neurons; 4-8 hours): 5 fold
- Chop induction (hSOD1^G93A motor neurons; 4 and 8 hours): 16 fold
- Chop induction (hSOD1^G93A motor neurons; 1 hour): 4 fold
- Bip expression increase (hSOD1^G93A motor neurons; 1 hour of CPA exposure): 2 fold
- Gadd45a induction (hSOD1^G93A motor neurons; 4 hours): 5 fold
- Atf4 induction (hSOD1^G93A motor neurons; 8 hours): 3 fold
- Bip expression increase (hSOD1^G93A motor neurons; 8 hours): approximately 5 fold
- Calreticulin induction (hSOD1^G93A motor neurons; 8 hours): 3 fold
- Nrf2 induction (hSOD1^G93A motor neurons; 8 hours): 2 fold
- p58/PK induction (hSOD1^G93A motor neurons; 8 hours): 6.5 fold
- loss of motor neurons ([1]; 33 μM CPA): ~86%
- effective concentration range at which mutant motor neurons exhibit reduced survival compared to control [2]: 6.25 to 12.5 µM
- reduction of survival of GFP− Tuj-1+ non-motor neurons [2]: ~23%
- reduction of survival of motor neurons (GFP+, Tuj1+) [2]: ~71%
- reduction of co-cultured spinal motor neuron survival ([2]; FACS-purified co-culture, CPA): ~70%
- reduction of dorsal spinal interneuron survival ([2]; FACS-purified co-culture, CPA): ~17%
- motor neuron survival, % of controls treated with vehicle alone ([3]; CPA 33 μM for 72h, alone): ~40%
- loss of motor neurons [4]: ~71%

SMILES: CN1CCN(Cc2ccc(-c3cnc4[nH]cc(-c5cccc6[nH]ncc56)c4c3)cc2)CC1 [Compound 7aa, 4-(5-(4-((4-Methylpiperazin-1-yl)methyl)phenyl)-1H-pyrrolo[2,3-b]pyridin-3-yl)-1H-indazole]
- pEC50 ([5]; CPA 33 μM): 6.68
- viability at 1 µM [5]: 112%
- Emax ([5]; CPA 33 μM): 134%
- half-life at 20 μM (in vitro): 9 min
- % Enzyme Activity Remaining (relative to DMSO controls), MLK3/MAP3K11, Data 1 (MLK3/MAP3K11): 31.88%
- % Enzyme Activity Remaining (relative to DMSO controls), MLK3/MAP3K11, Data 2 (MLK3/MAP3K11): 31.78%
- remaining activity at 0.025 µM (HGK/MAP4K4 [6]): 2.75%
- remaining activity at 0.1 µM (HGK/MAP4K4 [6]): -1.36%
- remaining activity at 0.1 µM (MLK1/MAP3K9; [8]): 52.9%
- remaining activity at 0.1 µM (MLK1/MAP3K9; [9]): 51.7%

SMILES: CN1CCN(Cc2ccc(-c3cnc4[nH]cc(-c5cccc(F)c5)c4c3)cc2)CC1 [Compound 7y, 3-(3-Fluorophenyl)-5-(4-((4-methylpiperazin-1-yl)methyl)phenyl)-1H-pyrrolo[2,3-b]pyridine]
- pEC50 ([5]; CPA 33 μM): 6.36
- viability at 1 µM [5]: 86.4%
- Emax ([5]; CPA 33 μM): 104%
- half-life at 20 μM (in vitro): > 30 min
- % Enzyme Activity Remaining (relative to DMSO controls), MLK3/MAP3K11, Data 1 (MLK3/MAP3K11): 40.75%
- % Enzyme Activity Remaining (relative to DMSO controls), MLK3/MAP3K11, Data 2 (MLK3/MAP3K11): 43.09%
- remaining activity at 0.025 µM (HGK/MAP4K4 [6]): 7.85%
- remaining activity at 0.1 µM (HGK/MAP4K4 [6]): 1.53%
- remaining activity at 0.1 µM (MLK1/MAP3K9; [8]): 57.1%
- remaining activity at 0.1 µM (MLK1/MAP3K9; [9]): 58.1%

SMILES: CN1CC2CCC(C1)N2Cc1ccc(-c2cnc3[nH]cc(-c4cccc5[nH]ncc45)c3c2)cc1 [Compound 12e, 4-(5-(4-((3-Methyl-3,8-diazabicyclo[3.2.1]octan-8-yl)methyl)phenyl)-1H-pyrrolo[2,3-b]pyridin-3-yl)-1H-indazole]
- EC50 ([5]; CPA 33 μM): Amibiguous
- viability at 1 µM [5]: 106%
- Emax ([5]; CPA 33 μM): 144%
- remaining activity at 0.1 µM (MLK3/MAP3K11; 0.1 μM): 71.8%
- TNFα secretion in LPS-stimulated microglia (N9 microglial cells): did not significantly decrease TNFα levels
- remaining activity at 0.025 µM (HGK/MAP4K4 [6]): 2.73%
- remaining activity at 0.1 µM (HGK/MAP4K4 [6]): 0.99%

SMILES: COC(=O)[C@@]1(O)C[C@H]2O[C@]1(C)n1c3ccccc3c3c4c(c5c6ccccc6n2c5c31)C(=O)NC4 [Compound K-252a]
- rescue of CPA-induced cell death [1]: 100%
- rescue of CPA-induced cell death ([4]; WT motor neurons): 56%

SMILES: Nc1ncc(C(=O)NC2CN(C(=O)C3CC3)C2)c2ccc(-c3cccc(F)c3)nc12 [GNE-495]
- rescue of CPA toxicity (human ES motor neurons): similarly neuroprotective
- pIC50 (HGK/MAP4K4 [7]): 8.43
- motor neuron survival restored, % of vehicle controls (maximum) ([3]; CPA 33 μM, at 1.2 μM (PF-6260933), 2.4 μM (GNE-495), 0.6 μM (URMC-099)): 73%
